Measurements as given in ChEMBL document CHEMBL1125324, “Development of a novel class of cyclic hexapeptide oxytocin antagonists based on a natural product” (J Med Chem, 1992).
Converted amounts (≈) assume the structure as drawn. *1 amine or outer side, *2 acyl side, *3 side chain or, on linkers, in order; H or OH if unused. Where a SMILES comes first, the peptide text is derived from it. [ ]: non-standard residue; d: D form. X1 = C=CCN([C@H](Cc1ccccc1)C(=O)[*:2])[*:1]; d1Nal = N[C@H](Cc1cccc2ccccc12)C(=O)O; d2Nal = N[C@H](Cc1ccc2ccccc2c1)C(=O)O; Pip(4-aza) = O=C(O)[C@@H]1CNCCN1; dNMeF = CN[C@H](Cc1ccccc1)C(=O)O; Pip = O=C(O)[C@@H]1CCCCN1; dPip = O=C(O)[C@H]1CCCCN1; dNMeA = CN[C@H](C)C(=O)O

Columns and labels:
[1] = target: T1, Oxytocin receptor (Rattus norvegicus, UniProt P70536); assay: Concentration required to displace 50% of [3H]oxytocin from rat uterine receptor.
T1 sequence (P70536 whole entry): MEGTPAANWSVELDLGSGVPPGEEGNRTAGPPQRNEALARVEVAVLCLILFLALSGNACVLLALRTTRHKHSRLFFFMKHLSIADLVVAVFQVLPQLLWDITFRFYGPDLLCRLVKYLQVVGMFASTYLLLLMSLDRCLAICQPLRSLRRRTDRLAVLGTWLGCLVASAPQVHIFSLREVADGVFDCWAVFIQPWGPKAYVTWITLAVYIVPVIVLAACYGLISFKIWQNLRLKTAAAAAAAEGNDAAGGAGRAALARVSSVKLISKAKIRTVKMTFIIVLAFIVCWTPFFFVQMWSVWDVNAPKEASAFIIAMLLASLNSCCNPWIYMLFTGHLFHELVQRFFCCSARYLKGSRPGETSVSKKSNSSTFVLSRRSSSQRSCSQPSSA

[2] = target: T2, Vasopressin V2 receptor (Rattus norvegicus, UniProt Q00788); assay: Inhibition of [3H]arginine vasopressin binding to AVP-V2 site in rat kidney medulla.; assay type: tissue-based
[3] = target: Vasopressin V1a receptor (Rattus norvegicus, UniProt P30560); assay: Concentration required to displace 50% of [3H]arginine vasopressin from rat liver arginine vasopressin 1A (AVP-V1a) site.
[4] = Aqueous solubility was determined; assay type: physicochemical
[5] = target: T2, Vasopressin V2 receptor; assay: Ability to inhibit AVP stimulation of adenylate cyclase activity in the rat kidney medulla (AVP-V2) receptor
[6] = species on record: Rattus norvegicus; assay: pA2 value was determined from regression analysis of log (dose ratio-1) vs -log [antagonist] (OT stimulated contractions in isolated uterus from DES-pretreated rats); assay type: functional; details: read-out: pA2 (converted)
[7] = species on record: Rattus norvegicus; assay: pA2 value by AVP (V1a) stimulated contraction of the isolated rat tail artery; assay type: functional; details: read-out: pA2 (converted)
[8] = species on record: Rattus norvegicus; assay: Compound was evaluated for the inhibition of accumulation of total [3H]inositol phosphates stimulated by exposure of uterine slices from DES-pretreated rats to OT; assay type: functional
[9] = target: Vasopressin V2 receptor (Rattus norvegicus) (UniProt Q00788); assay: Displacement of [3H]arginine vasopressin from rat kidney medullary (AVP-V2 site) at 10 uM; assay type: tissue-based
[10] = target: Vasopressin V1a receptor (Rattus norvegicus) (UniProt P30560); assay: Displacement of [3H]arginine vasopressin from rat liver (AVP-V1a site) at 10 uM
[11] = system: Rattus norvegicus; assay: Dose required for 50% reduction of the contractile response of the uterus to OT (1 ug/kg, iv bolus) in DES-pretreated rats; assay type: functional
[12] = species on record: Rattus norvegicus; assay: Compound was evaluated for the inhibition of accumulation of total [3H]inositol phosphates stimulated by exposure of the tissue to OT; assay type: functional
[13] = species on record: Rattus norvegicus; assay: pA2 value was determined from regression analysis of log (dose ratio-1) vs -log [antagonist] (isolated uterus from DES-pretreated rats); assay type: functional; details: read-out: pA2 (converted)
[14] = target: T1, Oxytocin receptor; assay: Compound was evaluated for OT receptor affinity by displacement of [3H]OT from binding sites in uterine tissue taken from pregnant rats
[15] = target: T3, Oxytocin receptor (Homo sapiens, UniProt P30559); assay: Compound was evaluated for OT receptor affinity by displacement of [3H]OT from binding sites in uterine tissue taken from nonlabor pregnant women
T3 sequence (P30559 whole entry): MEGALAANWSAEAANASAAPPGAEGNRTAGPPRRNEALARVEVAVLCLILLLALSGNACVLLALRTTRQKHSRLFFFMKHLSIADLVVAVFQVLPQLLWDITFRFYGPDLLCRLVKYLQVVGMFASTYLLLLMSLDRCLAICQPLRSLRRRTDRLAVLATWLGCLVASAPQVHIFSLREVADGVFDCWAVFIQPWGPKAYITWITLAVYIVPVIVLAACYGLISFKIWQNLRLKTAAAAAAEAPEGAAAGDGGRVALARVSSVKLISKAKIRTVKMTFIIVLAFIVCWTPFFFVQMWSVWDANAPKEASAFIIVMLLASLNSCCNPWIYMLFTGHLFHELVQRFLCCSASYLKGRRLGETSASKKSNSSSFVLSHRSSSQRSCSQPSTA

Sequence of Vasopressin V1a receptor (Rattus norvegicus) (P30560 whole entry, looked up): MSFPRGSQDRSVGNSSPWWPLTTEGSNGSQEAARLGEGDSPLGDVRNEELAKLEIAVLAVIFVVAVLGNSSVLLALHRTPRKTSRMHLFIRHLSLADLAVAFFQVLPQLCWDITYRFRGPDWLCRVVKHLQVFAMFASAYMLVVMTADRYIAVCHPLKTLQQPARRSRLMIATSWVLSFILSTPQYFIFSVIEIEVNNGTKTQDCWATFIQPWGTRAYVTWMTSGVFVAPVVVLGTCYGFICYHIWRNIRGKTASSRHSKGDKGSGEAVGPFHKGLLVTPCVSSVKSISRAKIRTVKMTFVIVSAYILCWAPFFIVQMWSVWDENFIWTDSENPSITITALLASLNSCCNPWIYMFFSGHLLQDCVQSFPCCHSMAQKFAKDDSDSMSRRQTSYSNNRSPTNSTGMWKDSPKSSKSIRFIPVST
Sequence of Vasopressin V1a receptor (P30560 whole entry): as the sequence (P30560 whole entry, looked up) above
T2 sequence (Q00788 whole entry): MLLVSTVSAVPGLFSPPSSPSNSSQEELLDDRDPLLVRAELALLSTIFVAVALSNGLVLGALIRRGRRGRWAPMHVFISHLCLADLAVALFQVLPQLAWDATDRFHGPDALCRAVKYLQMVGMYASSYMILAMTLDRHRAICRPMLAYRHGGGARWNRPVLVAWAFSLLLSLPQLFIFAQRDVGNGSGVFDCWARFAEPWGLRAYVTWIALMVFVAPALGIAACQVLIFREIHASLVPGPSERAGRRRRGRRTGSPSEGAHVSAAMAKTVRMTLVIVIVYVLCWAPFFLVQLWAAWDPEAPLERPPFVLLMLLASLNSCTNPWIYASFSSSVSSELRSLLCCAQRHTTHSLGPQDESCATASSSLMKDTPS
Sequence of Vasopressin V2 receptor (Rattus norvegicus) (Q00788 whole entry): as above

Structure (SMILES)	IC50 [1] [µM]	IC50 [2] [µM]	IC50 [3] [µM]	solubility [4] [mg/mL]	inhibition [9] [%]	inhibition [10] [%]	also measured
CC[C@H](C)[C@@H]1NC(=O)[C@@H](Cc2ccc3ccccc3c2)NC(=O)[C@@H]2CCCN2C(=O)[C@@H](Cc2ccccc2)N(C)C(=O)[C@H](CCCCN)NC(=O)[C@H]2CCCCN2C1=O (cyclo(I[dPip]K[dNMeF]P[d2Nal]))	0.013	0.11	1.3	1.7 (≈ 2100 µM)			
CC[C@H](C)[C@@H]1NC(=O)[C@@H](Cc2c[nH]c3ccccc23)NC(=O)[C@@H]2CCCN2C(=O)[C@@H](Cc2c[nH]cn2)NC(=O)[C@@H]2CCCCN2C(=O)[C@H]2CCCCN2C1=O (cyclo(I[dPip][Pip][dH]P[dW])) [listing 1 of 2 here]		5.2	7.4	2 (≈ 2650 µM)			IC50 [5]: 3.1 µM
CC[C@H](C)[C@@H]1NC(=O)[C@@H](Cc2c[nH]c3ccccc23)NC(=O)[C@@H]2CCCN2C(=O)[C@@H](Cc2c[nH]cn2)NC(=O)[C@@H]2CCCCN2C(=O)[C@H]2CCCCN2C1=O (cyclo(I[dPip][Pip][dH]P[dW])) [listing 2 of 2 here]							Kb [6]: 0.00251 µM; Kb [7]: 0.871 µM; IC50 [8]: 0.067 µM
CC[C@H](C)[C@H]1C(=O)N2CCCC[C@@H]2C(=O)N2CCCC[C@H]2C(=O)N(C)[C@H](Cc2ccccc2)C(=O)N2CCC[C@H]2C(=O)N[C@H](Cc2ccccc2)C(=O)N1C	25				19	18	
CC[C@H](C)[C@@H]1NC(=O)[C@@H](Cc2c[nH]c3ccccc23)NC(=O)[C@@H]2CCCN2C(=O)[C@@H](Cc2c[nH]cn2)NC(=O)[C@@H]2CCCCN2C(=O)[C@H]2CCC=NN2C1=O		1.1		1.9 (≈ 2520 µM)			AD50 [11]: 0.0903 mg/kg; IC50 [12]: 0.042 µM; Kb [13]: 0.00151 µM
CC[C@H](C)[C@@H]1NC(=O)[C@@H](Cc2ccccc2)NC(=O)[C@@H]2CCCCN2C(=O)[C@@H](Cc2ccccc2)N(C)C(=O)[C@@H]2CCCCN2C(=O)[C@H]2CCCCN2C1=O					48	51	
CC[C@H](C)[C@@H]1NC(=O)[C@@H](Cc2ccccc2)NC(=O)[C@@H]2CCCN2C(=O)[C@@H](Cc2ccccc2)N(C)C(=O)[C@@H]2CCCCN2C(=O)[C@@H](C)N(C)C1=O (cyclo(I[dNMeA][Pip][dNMeF]P[dF]))	1.5				17	20	
CC[C@H](C)[C@@H]1NC(=O)[C@@H](Cc2c[nH]c3ccccc23)NC(=O)[C@@H]2CCCN2C(=O)[C@@H](Cc2ccccc2)N(C)C(=O)[C@@H]2CNCCN2C(=O)[C@H]2CCCCN2C1=O (cyclo(I[dPip][Pip(4-aza)][dNMeF]P[dW]))	0.0084	0.69	32	1.4 (≈ 1790 µM)			Ki [14]: 0.0034 µM; AD50 [11]: 0.101 mg/kg; Ki [15]: 0.0045 µM; Kb [13]: 0.00257 µM
CC[C@H](C)[C@@H]1NC(=O)[C@@H](Cc2ccccc2)NC(=O)[C@@H]2CCCN2C(=O)[C@@H](CCCCN)NC(=O)[C@@H]2CCCCN2C(=O)[C@H]2CCCCN2C1=O (cyclo(I[dPip][Pip][dK]P[dF]))	0.41	7.4	1.1				
CC[C@H](C)[C@@H]1NC(=O)[C@@H](Cc2ccccc2)NC(=O)[C@@H]2CCCN2C(=O)[C@H](Cc2ccccc2)N(C)C(=O)[C@H](C)N(C)C(=O)[C@H]2CCCCN2C1=O					34	25	
CC[C@H](C)[C@@H]1NC(=O)[C@@H](Cc2cccc3ccccc23)NC(=O)[C@@H]2CCCN2C(=O)[C@@H](Cc2cnc[nH]2)NC(=O)[C@@H]2CCCCN2C(=O)[C@H]2CCCCN2C1=O (cyclo(I[dPip][Pip][dH]P[d1Nal]))	0.0083	0.72	0.75				
C=CCN1C(=O)[C@@H]2CCCCN2C(=O)[C@H]2CCCCN2C(=O)[C@H]([C@@H](C)CC)NC(=O)[C@@H](Cc2ccccc2)NC(=O)[C@@H]2CCCN2C(=O)[C@H]1Cc1ccccc1 (cyclo(I[dPip][Pip][X1]P[dF]))	0.19				77	45	
